Results taken from PubChem BioAssay (NCI).
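How tested: cells in 96-well plates exposed to compound for 48 hours at five concentrations. GI50 = concentration required for 50% inhibition of growth. Definition used: TGI = concentration required for complete inhibition of growth.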

Columns and labels:
Test in all cases: NCI tumour cell line growth inhibition, 48 h
BT-549 breast = test system: BT-549 breast
MDA-MB-231 breast = test system: MDA-MB-231 breast
HS 578T breast = test system: HS 578T breast
MDA-N = test system: MDA-N
CCRF-CEM leukemia = test system: CCRF-CEM leukemia
HL-60(TB) leukemia = test system: HL-60(TB) leukemia
MCF7 breast = test system: MCF7 breast
NCI-H23 lung = test system: NCI-H23 lung
KM12 colon = test system: KM12 colon
SK-MEL-28 melanoma = test system: SK-MEL-28 melanoma
HOP-92 NSCLC = test system: HOP-92 NSCLC
COLO 205 colon = test system: COLO 205 colon

Structure (SMILES) | TGI (BT-549 breast) | TGI (MDA-MB-231 breast) | TGI (HS 578T breast) | TGI (MDA-N) | TGI (CCRF-CEM leukemia) | TGI (HL-60(TB) leukemia) | TGI (MCF7 breast) | TGI (NCI-H23 lung) | TGI (KM12 colon) | TGI (SK-MEL-28 melanoma) | TGI (HOP-92 NSCLC) | TGI (COLO 205 colon) | GI50 (MDA-N) | GI50 (CCRF-CEM leukemia) | GI50 (HL-60(TB) leukemia) | GI50 (MCF7 breast) | GI50 (NCI-H23 lung) | GI50 (KM12 colon) | GI50 (COLO 205 colon) | GI50 (HOP-92 NSCLC)
C[C@]12CC[C@H](O)CC1=CC[C@@H]1C2CC[C@]2(C)Nc3c(cnn3-c3ccc(F)cc3)CC12 (some centres not stated) | 38.9 µM | > 100 µM | 22.2 µM | > 100 µM | > 100 µM | > 100 µM | > 100 µM | > 100 µM | > 100 µM | > 100 µM | 63.6 µM |  |  |  |  |  |  |  |  | 
Cc1ncc([N+](=O)[O-])n1CCNC(=O)Cn1c([N+](=O)[O-])cnc1C | > 100 µM | > 100 µM | > 100 µM | > 100 µM | > 100 µM | > 100 µM | > 100 µM | > 100 µM | > 100 µM | > 100 µM |  | > 100 µM |  |  |  |  |  |  |  | 
FC1=C2CCCCCC2SC1(F)F (configuration not stated) | > 100 µM | > 100 µM | > 100 µM | > 100 µM | 18.7 µM | 33.9 µM | > 100 µM | > 100 µM | > 100 µM | > 100 µM | 70.2 µM | 39.2 µM |  |  |  |  |  |  |  | 
COc1ccc(C(=O)Nc2ccc3oc(-c4ccccc4)nc3c2)cc1 | > 100 µM | > 100 µM | > 100 µM | > 100 µM | > 100 µM | > 100 µM | > 100 µM | > 100 µM | > 100 µM | > 100 µM | > 100 µM | > 100 µM |  |  |  |  |  |  |  | 
CC(=O)OCC(Br)C1(C)CCC(C(C)(C)Br)O1 (configuration not stated) | > 100 µM | > 100 µM | > 100 µM | > 100 µM | > 100 µM | > 100 µM | > 100 µM | > 100 µM | > 100 µM | > 100 µM | > 100 µM | > 100 µM |  |  |  |  |  |  |  | 
O=c1[nH]c2c(c(=O)[nH]1)SSC2 | 6.65 µM | 5.15 µM | 56 µM | 3.17 µM |  | 32.6 µM | > 54.3 µM | 26.9 µM | 38.8 µM | 18.7 µM | 10.7 µM | 50.7 µM |  |  |  |  |  |  |  | 
CN(C)Cc1cc(N=Nc2ccc(Cl)cc2)ccc1OC(=O)c1ccccc1 | 47.8 µM | 28.6 µM | 46.9 µM | 30.1 µM | 38.8 µM | 43.7 µM | 28.7 µM | 34.4 µM | 29.6 µM | 29.7 µM | 11.1 µM | 40.8 µM |  |  |  |  |  |  |  | 
CC(=O)O[C@@H](C1C[C@@H](C)[C@H]2[C@@](O)(O1)[C@H](O)[C@@]1(C)C3=CC[C@H]4C(C)(C)[C@@H](OC5OCC(O)C(O)C5O)CC[C@@]45C[C@@]35CC[C@]21C)C(C)(C)O (some centres not stated) | 80.8 µM | 37.2 µM | > 100 µM | 73.6 µM | 24.4 µM | 15.3 µM | 50.3 µM | 49 µM | 58.1 µM | 57 µM | 60.5 µM | 48.4 µM |  |  |  |  |  |  |  | 
CC1=NN(C(=O)CC(=O)Nc2cccc(Cl)c2)C(=O)C1N=Nc1ccc(C(=O)O)cc1 (configuration not stated) | > 100 µM | > 100 µM | > 100 µM | > 100 µM | > 100 µM | > 100 µM | > 100 µM | > 100 µM | > 100 µM | > 100 µM | > 100 µM | > 100 µM |  |  |  |  |  |  |  | 
CC(=O)c1sc(=N)n(-c2c(C)cccc2C)c1C | > 100 µM | > 100 µM | > 100 µM | > 100 µM | > 100 µM | > 100 µM | > 100 µM | > 100 µM | > 100 µM | > 100 µM |  | > 100 µM |  |  |  |  |  |  |  | 
CCOC(=O)/C(C#N)=C/c1ccc2c(c1)CC1(C2)Cc2cc(CC)c(C(C)O)cc2C1 (configuration not stated) | 23.4 µM | 27.1 µM | 60.8 µM | 5.16 µM | 27.2 µM | 8.51 µM | 23.9 µM | 39.5 µM | 38.8 µM | 38.9 µM | 47.9 µM | 66.2 µM |  |  |  |  |  |  |  | 
Cc1cc(-c2nc3cccc(F)c3s2)ccc1N | > 100 µM | > 100 µM | > 90.8 µM | > 100 µM | 80.5 µM | > 100 µM | > 100 µM |  | > 100 µM | > 100 µM | > 88.2 µM | > 100 µM |  |  |  |  |  |  |  | 
Nc1nc(N)c2nc(CNc3ccc(C(=O)NC(CCCCNC(=O)c4ccccc4C(=O)O)C(=O)O)cc3)cnc2n1 (configuration not stated) | > 100 µM | > 100 µM | > 100 µM | > 100 µM | > 100 µM | > 100 µM | > 100 µM | > 100 µM | > 100 µM | > 100 µM | > 100 µM | > 100 µM | 0.00464 µM | 0.00306 µM | 0.00244 µM | 0.00496 µM | 0.00915 µM | 0.00485 µM | 0.537 µM | > 100 µM
CC1=NN=C(N)NC1=CC(Sc1ccc(Cl)cc1)c1c(O)ccc2ccccc12 (configuration not stated) | > 81.5 µM | 56.5 µM | 41.3 µM | > 100 µM | 31.5 µM |  | 73.9 µM | 51.6 µM | 36.9 µM | > 62.6 µM | > 78.5 µM | 36.8 µM |  |  |  |  |  |  |  | 
CCN(CC)CCO/N=C1/C=C2CCC3C(CC[C@@]4(C)C3CC[C@]4(C)O)[C@@]2(C)CC1 (some centres not stated) | 39.1 µM | 36 µM | 33.7 µM | 5.72 µM | 3.97 µM |  | 80.1 µM | 29 µM | 18.9 µM |  | 21 µM | 14.6 µM |  |  |  |  |  |  |  | 
CCOP(=O)(OCC)/C(C#N)=C/c1ccnc2ccccc12 | 50.9 µM | 58.2 µM | 69.6 µM | 42.2 µM |  |  | > 100 µM | 59.7 µM | 91.3 µM | > 100 µM | 43.7 µM | 38.1 µM |  |  |  |  |  |  |  | 
Cc1nc2c(=O)n3c4c(cccc4c2o1)CCC3 | > 100 µM | > 100 µM | > 100 µM | > 100 µM | > 100 µM | > 100 µM | > 100 µM | > 100 µM | > 100 µM | > 100 µM | > 100 µM | > 100 µM |  |  |  |  |  |  |  | 
